pEC50: −log10 of the molar value. Numbered stars: 1 amine (or outer) side, 2 acyl side, 3 side chain; on linkers, the order of the positions; unused ones are H or OH. Square brackets hold non-standard residues; d marks the D form. Side chains are listed from the residue outwards. Peptide text beside a SMILES is read from it. * marks the point of attachment. C18 diacid = O=C(O)CCCCCCCCCCCCCCCCC(=O)*; γGlu = O=C(O)[C@H](CCC(=O)[*:2])N[*:1]; AEEA = NCCOCCOCC(=O)O; Aib = CC(C)(N)C(=O)O
What was measured:
Rat GLP-1R = biological target: T1, Rat GLP-1R (Rattus norvegicus, UniProt P32301); experiment: Receptor potency, CRE-luciferase functional assay in BHK cells; type: cell-based; settings: Rat receptors, whole BHK cells, 0% plasma, 3 h 37°C, value (95% CI)
T1 construct: a plasmid encoding either the glucagon receptor or the GLP-1 receptor from the relevant species; expressed in transfected cells
T1 sequence (P32301 22-463): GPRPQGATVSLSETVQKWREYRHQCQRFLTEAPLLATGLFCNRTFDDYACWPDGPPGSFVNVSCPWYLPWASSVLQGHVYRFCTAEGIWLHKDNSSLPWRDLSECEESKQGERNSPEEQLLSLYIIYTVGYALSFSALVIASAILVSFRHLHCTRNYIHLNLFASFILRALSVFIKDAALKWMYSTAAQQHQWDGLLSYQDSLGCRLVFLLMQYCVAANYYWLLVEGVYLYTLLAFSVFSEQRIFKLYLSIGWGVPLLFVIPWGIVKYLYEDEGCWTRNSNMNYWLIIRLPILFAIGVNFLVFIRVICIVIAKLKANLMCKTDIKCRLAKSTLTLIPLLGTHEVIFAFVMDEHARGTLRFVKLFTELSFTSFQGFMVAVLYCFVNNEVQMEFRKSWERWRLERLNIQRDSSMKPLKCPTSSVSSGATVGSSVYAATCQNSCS

in vivo = settings: mouse, sc
Experimental: Compound exposure was measured by Luminescence Oxygen Channeling Immunoassay (LOCI). […] The three reactants were combined with the analyte and formed a two-sited immuno-complex. Illumination of the complex released singlet oxygen […] from the donor beads. They were channeled into the acceptor beads and triggered a chemiluminescence response which was measured in an EnVision plate reader (PerkinElmer). The amount of light was proportional to the concentration of the analyte. As calibrators, a dilution line of the relevant analyte in rat/mouse plasma was included.
Plasma concentration-time profiles were analysed using non-compartmental analysis (NCA) using Phoenix WinNonlin Professional 6.3 (Pharsight, Mountain View, CA, US). Calculations were performed using full concentration-time profile values or sparse sampling concentration-time values as appropriate.

DIO mice [1] = experiment: Subchronic effect on energy expenditure in DIO mice (indirect calorimetry); type: in vivo, mouse; settings: 5 nmol/kg s.c. once daily, eleven days
Experimental: DIO mice (n = 8) were treated once daily s.c. in the morning for eleven days with vehicle or 5 nmol/kg NN1177. Forty-eight hours prior to first dose and during the study, the metabolic phenotype was determined using the PhenoMaster system (TSE Systems GmbH, Bad Homburg, Germany). During this period, air flow, temperature, oxygen- and carbon dioxide content, oxygen uptake (VO2) and carbon dioxide production (VCO2) were simultaneously measured using standard indirect calorimetry analysis. The respiratory exchange rate (RER) and energy expenditure (EE) were calculated automatically from VO2 and VCO2. Furthermore, voluntary activity in x-y dimensions was determined. All parameters were measured simultaneously for one min per cage in two cages at a time, resulting in a time resolution of data points of 9 min. Statistical analysis was performed as one-way ANOVA followed by Dunnets post-hoc test. Statistics on body weight was performed as one-way ANOVA at the last day of treatment. Statistics on energy expenditure data was calculated using two-way ANOVA with repeated measures with Bonferroni’s post hoc test. Statistical analysis was performed on average light-dark period values (only raw data, no mean data is presented). p<0.05 was considered statistically significant. GraphPad Prism 6.4 (GraphPad) was used for all in vivo data visualization as well as statistical analyses.

DIO mice [2] = experiment: Acute effect on glucose tolerance in DIO mice (IPGTT); type: in vivo, mouse; settings: 3 or 5 nmol/kg s.c., at Cmax and at Cmin, p<0.001
Experimental: All animals received a single s.c. injection of compound at 4 pm, 21 h prior to administration of glucose (for all treated animals to have equally affected food intake in the dark period prior to the intraperitoneal glucose tolerance test (IPGTT)). […] Animals were fasted for 5–6 h prior to intraperitoneal (i.p.) injection of 2 g/kg glucose.

Compound | pEC50 (Rat GLP-1R) | half-life (in vivo) [h] | Body weight loss during treatment period (DIO mice [1]) | Physical activity (DIO mice [1]) | Respiratory exchange ratio (RER) (DIO mice [1]; light and dark period, p<0.001) | Energy expenditure per body weight (DIO mice [1]; light and dark period, p<0.01 day 3, p<0.001 day 5–11) | Glucose tolerance (IPGTT) vs vehicle (DIO mice [2]; 2 g/kg glucose i.p.) | Basal blood glucose vs vehicle (DIO mice [2])
CC(C)C[C@H](NC(=O)[C@H](CC(C)C)NC(=O)[C@H](Cc1c[nH]c2ccccc12)NC(=O)[C@H](CCC(N)=O)NC(=O)[C@@H](NC(=O)[C@H](Cc1ccccc1)NC(=O)[C@H](CCC(=O)O)NC(=O)[C@H](CCCNC(=N)N)NC(=O)[C@H](C)NC(=O)[C@H](C)NC(=O)[C@H](CCCNC(=N)N)NC(=O)[C@H](CO)NC(=O)[C@H](CC(=O)O)NC(=O)[C@H](CC(C)C)NC(=O)[C@H](Cc1ccc(O)cc1)NC(=O)[C@H](CCCCN)NC(=O)[C@H](CO)NC(=O)[C@H](CC(C)C)NC(=O)[C@H](CC(=O)O)NC(=O)[C@H](CO)NC(=O)[C@@H](NC(=O)[C@H](Cc1ccccc1)NC(=O)[C@@H](NC(=O)CNC(=O)[C@H](CCC(=O)O)NC(=O)C(C)(C)NC(=O)[C@@H](N)Cc1c[nH]cn1)[C@@H](C)O)[C@@H](C)O)C(C)C)C(=O)N[C@@H](CC(N)=O)C(=O)N[C@@H](CCCCNC(=O)CC[C@H](NC(=O)CC[C@H](NC(=O)COCCOCCNC(=O)COCCOCCNC(=O)CC[C@H](NC(=O)CCCCCCCCCCCCCCCCC(=O)O)C(=O)O)C(=O)O)C(=O)O)C(N)=O [GLP-1 reference] (H-H[Aib]EGTFTSDLSKYLDSRAAREFVQWLLNK([γGlu-γGlu-AEEA-AEEA-γGlu-C18 diacid])-NH2) | 11.52 | 11 |  |  |  |  |  | 
CC(C)C[C@H](NC(=O)[C@H](Cc1ccc(O)cc1)NC(=O)[C@H](CCCCN)NC(=O)[C@H](CO)NC(=O)[C@H](CC(C)C)NC(=O)[C@H](CC(=O)O)NC(=O)[C@H](CO)NC(=O)[C@@H](NC(=O)[C@H](Cc1ccccc1)NC(=O)[C@@H](NC(=O)CNC(=O)[C@H](CCC(N)=O)NC(=O)C(C)(C)NC(=O)[C@@H](N)Cc1c[nH]cn1)[C@@H](C)O)[C@@H](C)O)C(=O)N[C@@H](CCC(=O)O)C(=O)N[C@@H](CO)C(=O)N[C@@H](CCCCN)C(=O)N[C@@H](CCCNC(=N)N)C(=O)N[C@@H](C)C(=O)N[C@@H](CCCNC(=N)N)C(=O)N[C@@H](CCC(=O)O)C(=O)N[C@@H](Cc1ccccc1)C(=O)N[C@H](C(=O)N[C@@H](CCC(N)=O)C(=O)N[C@@H](Cc1c[nH]c2ccccc12)C(=O)N[C@@H](CC(C)C)C(=O)N[C@@H](CC(C)C)C(=O)N[C@@H](CCCCNC(=O)CC[C@H](NC(=O)CC[C@H](NC(=O)[C@H](CO)NC(=O)[C@H](CCC(=O)O)NC(=O)[C@H](CO)NC(=O)CC[C@H](NC(=O)CC[C@H](NC(=O)CCCCCCCCCCCCCCCCC(=O)O)C(=O)O)C(=O)O)C(=O)O)C(=O)O)C(=O)N[C@H](C(N)=O)[C@@H](C)O)C(C)C [NN1177] (H-H[Aib]QGTFTSDLSKYLESKRAREFVQWLLK([γGlu-γGlu-Ser-Glu-Ser-γGlu-γGlu-C18 diacid])T-NH2) |  |  | approximately 30% | not affected | decreased significantly | increased | improved | improved
